For 2 compounds, EC50 and Emax results are on record in patent US12679878B2, “CRF2 receptor agonists and their use in therapy” (SANOFI, priority 2020, dated 2026).

Where two headings read alike, the source gives them in different places. Starred links: 1 amine or outer side, 2 acyl side, 3 side chain; linkers in the order of their positions; H or OH if unused. Non-standard residues stand in square brackets, D forms with d. Residues, ends and D or L forms follow the SMILES beside them. Groups on a side chain read outwards from the residue. *: point of attachment. C18 diacid = O=C(O)CCCCCCCCCCCCCCCCC(=O)*; γGlu = O=C(O)[C@H](CCC(=O)[*:2])N[*:1]; AEEA = NCCOCCOCC(=O)O; Aib = CC(C)(N)C(=O)O

In one assay the target is T1, CRF1R receptor (Homo sapiens, UniProt P34998).
T1 construct: host or cells: CHO-K1 clone 2
T1 sequence (P34998 24-415): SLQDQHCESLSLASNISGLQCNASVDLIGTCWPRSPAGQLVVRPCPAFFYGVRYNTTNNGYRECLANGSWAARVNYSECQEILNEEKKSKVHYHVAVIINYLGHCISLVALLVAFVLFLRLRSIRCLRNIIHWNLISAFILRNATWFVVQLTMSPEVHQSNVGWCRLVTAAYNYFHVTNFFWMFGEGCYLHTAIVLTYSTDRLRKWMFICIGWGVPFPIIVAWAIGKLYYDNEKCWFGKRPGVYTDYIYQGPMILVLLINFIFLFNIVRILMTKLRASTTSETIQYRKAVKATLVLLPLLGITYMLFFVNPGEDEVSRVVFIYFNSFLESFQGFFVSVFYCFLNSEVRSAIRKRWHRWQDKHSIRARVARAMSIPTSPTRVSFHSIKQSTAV
Briefly: cAMP activity at anti-target CRF1R, CHO-K1 cell line clone 2 (Example 19.10). Format: cell-based. The following applies: CRF1R CHO-K1 clone 2; for EC50: 0% HSA, read-out: EC50 [nM] 0% HSA; for Emax: 100% = Sauvagine at 100 nM. The method, boiled down:
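A CRF1R-overexpressing CHO-K1 line (clone 2) was grown in F12/10% FBS/G418 and frozen in aliquots before use. The cAMP assay followed the preceding procedure, with 100% activation defined by Sauvagine at 100 nM.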

A further assay has as its target T2, human CRF2α receptor (Homo sapiens, UniProt Q13324).
T2 construct: expressed in transfected cells; host or cells: TeloHEAC
T2 sequence (Q13324 1-411): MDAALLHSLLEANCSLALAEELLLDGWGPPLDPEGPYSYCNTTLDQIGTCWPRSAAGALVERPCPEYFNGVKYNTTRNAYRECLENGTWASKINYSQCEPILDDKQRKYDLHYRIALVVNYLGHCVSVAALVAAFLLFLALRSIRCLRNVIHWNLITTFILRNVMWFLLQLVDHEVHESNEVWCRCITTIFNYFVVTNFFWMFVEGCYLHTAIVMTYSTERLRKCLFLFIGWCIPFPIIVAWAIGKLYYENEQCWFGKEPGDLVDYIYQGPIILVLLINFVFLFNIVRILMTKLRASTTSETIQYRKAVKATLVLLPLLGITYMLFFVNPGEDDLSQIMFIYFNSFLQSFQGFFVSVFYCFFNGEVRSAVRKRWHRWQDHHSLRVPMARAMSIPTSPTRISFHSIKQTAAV
Briefly: cAMP agonism at human CRF2 α receptor in TeloHEAC cells (Example 7). Format: cell-based. The following applies: cAMP HTRF, TeloHEAC cells stably expressing human CRF2 α. The method, boiled down:
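Thawed frozen stably transfected cells in HBSS/20 mM HEPES (0% or 0.1% HSA) plus 2 mM IBMX were exposed to compound at 2000 cells/well for 30 min at room temperature. Intracellular cAMP was read by HTRF (665/620 nm ratio) after 1 h lysis; EC50 was derived with 1000 nM urocortin 2 set as 100%.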

[1] abbreviates: 0% HSA, read-out: EC50 [nM], 0% HSA.

Consider `CC[C@H](C)[C@H](N)C(=O)N[C@H](C(=O)N[C@@H](CC(C)C)C(=O)N[C@@H](CO)C(=O)N[C@@H](CC(C)C)C(=O)N[C@@H](CC(=O)O)C(=O)N[C@H](C(=O)N1CCC[C@H]1C(=O)N[C@H](C(=O)N[C@@H](CCCCN)C(=O)N[C@@H](CC(C)C)C(=O)N[C@@H](CCCCNC(=O)COCCOCCNC(=O)COCCOCCNC(=O)CC[C@H](NC(=O)CCCCCCCCCCCCCCCCC(=O)O)C(=O)O)C(=O)N[C@@H](CCC(N)=O)C(=O)N[C@H](C(=O)N[C@@H](CC(C)C)C(=O)N[C@@H](CC(C)C)C(=O)N[C@@H](CCCCN)C(=O)N[C@@H](CCC(N)=O)C(=O)N[C@@H](CCC(=O)O)C(=O)N[C@@H](CCCNC(=N)N)C(=O)N[C@@H](CCC(N)=O)C(=O)N[C@@H](CCCCN)C(=O)NC(C)(C)C(=O)N[C@@H](CCC(N)=O)C(=O)N[C@@H](CCCNC(=N)N)C(=O)N[C@@H](CCC(=O)O)C(=O)N[C@@H](CCC(N)=O)C(=O)N[C@@H](C)C(=O)N[C@@H](CCC(=O)O)C(=O)N[C@H](C(=O)N[C@@H](CC(N)=O)C(=O)N[C@@H](CCCCN)C(=O)N[C@@H](CCC(N)=O)C(=O)N[C@H](C(=O)N[C@@H](CC(C)C)C(=O)N[C@@H](C)C(=O)N[C@@H](CCC(N)=O)C(=O)N[C@H](C(N)=O)C(C)C)[C@@H](C)CC)[C@@H](C)O)[C@@H](C)CC)[C@@H](C)CC)C(C)C)C(C)C` [compound 104] (H-IVLSLDVPIKLK([AEEA-AEEA-γGlu-C18 diacid])QILLKQERQK[Aib]QREQAETNKQILAQV-NH2), for which, at CRF1R receptor, the EC50 was above 100 nM and the Emax came out at 3.7%. On human CRF2α receptor (setting [1]), the EC50 worked out at 0.32 nM.

`CC[C@H](C)[C@H](N)C(=O)N[C@H](C(=O)N[C@@H](CC(C)C)C(=O)N[C@@H](CO)C(=O)N[C@@H](CC(C)C)C(=O)N[C@@H](CC(=O)O)C(=O)N[C@H](C(=O)N1CCC[C@H]1C(=O)N[C@H](C(=O)N[C@@H](CCCCN)C(=O)N[C@@H](CC(C)C)C(=O)N[C@@H](CCCCNC(=O)COCCOCCNC(=O)COCCOCCNC(=O)CC[C@H](NC(=O)CCCCCCCCCCCCCCCCC(=O)O)C(=O)O)C(=O)N[C@@H](CCC(N)=O)C(=O)N[C@H](C(=O)N[C@@H](CC(C)C)C(=O)N[C@@H](CC(C)C)C(=O)N[C@@H](CCC(=O)O)C(=O)N[C@@H](CCC(N)=O)C(=O)N[C@@H](CCC(=O)O)C(=O)N[C@@H](CCCNC(=N)N)C(=O)N[C@@H](CCC(N)=O)C(=O)N[C@@H](CCCCN)C(=O)NC(C)(C)C(=O)N[C@@H](CCC(N)=O)C(=O)N[C@@H](CCCNC(=N)N)C(=O)N[C@@H](CCC(N)=O)C(=O)N[C@@H](CCC(N)=O)C(=O)N[C@@H](C)C(=O)N[C@@H](CCC(=O)O)C(=O)N[C@H](C(=O)N[C@@H](CC(N)=O)C(=O)N[C@@H](CCCCN)C(=O)N[C@@H](CCC(N)=O)C(=O)N[C@H](C(=O)N[C@@H](CC(C)C)C(=O)N[C@@H](C)C(=O)N[C@@H](CCC(N)=O)C(=O)N[C@H](C(N)=O)C(C)C)[C@@H](C)CC)[C@@H](C)O)[C@@H](C)CC)[C@@H](C)CC)C(C)C)C(C)C` [compound 105] (H-IVLSLDVPIKLK([AEEA-AEEA-γGlu-C18 diacid])QILLEQERQK[Aib]QRQQAETNKQILAQV-NH2): the EC50 on CRF1R receptor is above 100 nM; on human CRF2α receptor (setting [1]), 0.41 nM; at human CRF2α receptor (0.1% HSA, read-out: EC50 [nM], 0.1% HSA), 15.3 nM. For the same compound, on CRF1R receptor, the Emax was determined as 15.4%.
